In data set [1] the test system is PC-3 cells. Briefly: Immunofluorescence staining of microtubules in PC-3 cells. Format: cell-based, human. As to conditions: PC-3, 24 h.
For data set [2], the system named is SK-BR-3 (HER2-overexpressing breast cancer). As to conditions: read-out: IC50 SK-BR3; SRB; compound marked 'See ref [15]'; cited from earlier work.
A further data set has as its system PC-3 (prostate cancer). As to conditions: read-out: IC50 PC-3; SRB; compound marked 'See ref [15]'; cited from earlier work.
For data set [3], the system named is MDA-MB-231 (triple-negative breast cancer). Conditions: read-out: IC50 MDA-MB-231; SRB; compound marked 'See ref [15]'; cited from earlier work.
A further data set has as its system KB cells. The data set can be described thus: Cell cycle analysis by flow cytometry. It is filed as cell-based, human. As to conditions: 6 or 24 h, PXL 0.02 µM, 4 0.5 µM, 8 2 µM.
The test system of another data set is A549 (lung carcinoma). As to conditions: read-out: IC50 A549; SRB; compound marked 'See ref [15]'; cited from earlier work.
Data set [4] has as its system KB (epidermoid carcinoma of the nasopharynx). As to conditions: read-out: IC50 KB; SRB; compound marked 'See ref [15]'; cited from earlier work.
Data set [5] deals with MCF-7 (estrogen-receptor-positive, HER2-negative breast cancer). As to conditions: read-out: IC50 MCF-7; SRB; compound marked 'See ref [15]'; cited from earlier work.
The test system of data set [6] is HepG2 (hepatocellular carcinoma). As to conditions: read-out: IC50 Hep-G2; SRB; compound marked 'See ref [15]'; cited from earlier work.
The subject of data set [7] is PC-3 cells. The data set can be described thus: Cell cycle analysis by flow cytometry. Format: cell-based, human. Conditions: 2 µM, 24 h. Background: Flow cytometry measures light scatter and fluorescence of single cells or particles in a stream.
The test system of a further data set is KB-VIN cells. Briefly: Cell cycle analysis by flow cytometry. Format: cell-based, human. As to conditions: 6 or 24 h, PXL 3 µM, 4 0.5 µM, 8 2 µM.
In data set [8] the test system is HCT-8 (human colon adenocarcinoma). Conditions: read-out: IC50 HCT-8; SRB; compound marked 'See ref [15]'; cited from earlier work.
The target of data set [9] is ZR-75-1 (estrogen-receptor-positive, HER2-positive breast cancer). As to conditions: read-out: IC50 ZR-75-1; SRB; compound marked 'See ref [15]'; cited from earlier work.
Data set [10] relates to KB-VIN (P-gp-overexpressing MDR subline of KB). Conditions: read-out: IC50 KB-VIN; SRB; compound marked 'See ref [15]'; cited from earlier work.

One may read the IC50 as the point on the concentration scale where inhibition reaches its midpoint.

Turning to `CCC1=C(O)c2c(oc(-c3csc4ccccc34)cc2=O)C(CC)(CC)C1=O` [Compound 4, 2-(benzo[b]thiophene-3′-yl)-6,8,8-triethyldesmosdumotin B], the microtubule morphology result with PC-3 cells [1] (equitoxic concentrations: 0.2 µM 4, 0.2 µM CA-4, 5 µM VIN, 0.2 µM PXL) is recorded as “induced depolymerization of cytosolic microtubules as well monopolar (arrow heads) or multipolar spindle formations in the G2/M-phase”. The “dose-dependent effects on microtubule morphology” value in the data set with PC-3 cells [1] (compounds 0.2, 2 or 20 µM, CA-4 0.002 or 20 µM) is “Dose-dependent disruption of both interphase microtubules and spindles”. Besides, the IC50 in data set [2] was 0.5 µM; in the data set on PC-3 (prostate cancer) it was 0.16 µM; in data set [3], 0.7 µM; with A549 (lung carcinoma), 0.06 µM; in [4], 0.08 µM; in data set [5], 0.72 µM. Moreover, the IC50 in data set [6] is 0.13 µM; in data set [8] it was 0.13 µM; in data set [9], 0.85 µM; in data set [10], 0.07 µM. For the same molecule, the entries for the “effect on cell cycle distribution” value in the data set on KB cells, with PC-3 cells [7] and with KB-VIN cells were “Accumulation of G2/M phase as well as S phase cells”, “efficiently induced accumulation of G2/M phase cells” and “Accumulation of G2/M phase as well as S phase cells”, respectively.

(Values after publication PMC4394749 (Journal of medicinal chemistry, 2015).)
